According to ChEMBL document CHEMBL1201862, “PubChem BioAssay data set” (2004):
The source made the active and inactive calls.

How the values were obtained:
[1] = A Cell Based Secondary Assay To Explore Cytotoxicity of Compounds that Sensitize Mycobacterium Tuberculosis to Beta-Lactam Antibiotics.; type: functional
[2] = target: Prothrombin (Homo sapiens, UniProt P00734); experiment: Thrombin 1536 HTS Dose Response Confirmation. [Related pubchem assays: 1046 (Thrombin 1536 HTS; hits were confirmed in this assay)]; type: functional
[3] = target: T1, Caspase-3 (Homo sapiens, UniProt P42574); type: functional;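 further: Dose-response selectivity test against caspase-3 for candidate inhibitors of sentrin-specific proteases (SENPs)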
T1 sequence (P42574 whole entry): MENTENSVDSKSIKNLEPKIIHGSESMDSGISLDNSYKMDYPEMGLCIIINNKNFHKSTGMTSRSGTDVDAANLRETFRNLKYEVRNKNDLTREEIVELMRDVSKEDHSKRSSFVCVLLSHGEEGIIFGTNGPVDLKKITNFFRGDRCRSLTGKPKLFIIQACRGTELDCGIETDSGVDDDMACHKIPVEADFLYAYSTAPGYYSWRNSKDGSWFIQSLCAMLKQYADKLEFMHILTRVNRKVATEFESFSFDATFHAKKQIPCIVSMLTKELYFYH

[4] = target: T2, Sentrin-specific protease 7 (Homo sapiens, UniProt Q9BQF6); type: functional;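 further: Luminescence-based dose-response confirmation of ultra-high-throughput screening hits, measuring inhibition of SENP7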
T2 sequence (Q9BQF6 whole entry): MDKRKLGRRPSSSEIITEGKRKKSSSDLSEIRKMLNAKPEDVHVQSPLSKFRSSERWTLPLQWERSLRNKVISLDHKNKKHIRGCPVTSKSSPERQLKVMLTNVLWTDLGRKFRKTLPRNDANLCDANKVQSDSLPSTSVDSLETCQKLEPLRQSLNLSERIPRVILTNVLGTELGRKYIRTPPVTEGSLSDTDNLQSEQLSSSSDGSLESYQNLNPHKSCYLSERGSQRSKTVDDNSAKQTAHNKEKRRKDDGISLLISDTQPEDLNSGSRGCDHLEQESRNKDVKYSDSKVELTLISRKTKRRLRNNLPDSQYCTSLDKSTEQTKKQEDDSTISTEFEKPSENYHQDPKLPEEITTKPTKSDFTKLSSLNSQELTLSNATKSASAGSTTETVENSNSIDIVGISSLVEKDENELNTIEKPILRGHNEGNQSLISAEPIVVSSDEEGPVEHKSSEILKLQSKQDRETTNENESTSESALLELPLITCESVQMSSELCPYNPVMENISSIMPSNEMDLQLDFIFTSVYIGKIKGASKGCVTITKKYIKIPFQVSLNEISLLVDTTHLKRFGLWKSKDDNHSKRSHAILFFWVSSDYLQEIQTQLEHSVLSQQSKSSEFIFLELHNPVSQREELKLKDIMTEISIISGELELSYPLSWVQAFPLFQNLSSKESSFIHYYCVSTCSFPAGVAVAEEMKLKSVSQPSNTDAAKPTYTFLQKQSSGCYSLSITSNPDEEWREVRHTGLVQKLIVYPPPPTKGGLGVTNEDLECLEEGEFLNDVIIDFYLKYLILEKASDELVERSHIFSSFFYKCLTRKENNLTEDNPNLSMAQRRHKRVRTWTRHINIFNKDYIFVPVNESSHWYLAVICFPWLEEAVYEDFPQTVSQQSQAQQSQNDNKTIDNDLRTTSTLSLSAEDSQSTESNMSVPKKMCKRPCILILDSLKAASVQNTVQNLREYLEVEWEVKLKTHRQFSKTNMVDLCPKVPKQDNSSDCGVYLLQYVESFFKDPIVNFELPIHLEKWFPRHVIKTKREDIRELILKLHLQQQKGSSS

[5] = target: T3, Sentrin-specific protease 6 (Homo sapiens, UniProt Q9GZR1); type: functional;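 further: Luminescence-based dose-response confirmatory assay of SENP6 inhibition, following up an ultra-high-throughput screen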
T3 sequence (Q9GZR1 whole entry): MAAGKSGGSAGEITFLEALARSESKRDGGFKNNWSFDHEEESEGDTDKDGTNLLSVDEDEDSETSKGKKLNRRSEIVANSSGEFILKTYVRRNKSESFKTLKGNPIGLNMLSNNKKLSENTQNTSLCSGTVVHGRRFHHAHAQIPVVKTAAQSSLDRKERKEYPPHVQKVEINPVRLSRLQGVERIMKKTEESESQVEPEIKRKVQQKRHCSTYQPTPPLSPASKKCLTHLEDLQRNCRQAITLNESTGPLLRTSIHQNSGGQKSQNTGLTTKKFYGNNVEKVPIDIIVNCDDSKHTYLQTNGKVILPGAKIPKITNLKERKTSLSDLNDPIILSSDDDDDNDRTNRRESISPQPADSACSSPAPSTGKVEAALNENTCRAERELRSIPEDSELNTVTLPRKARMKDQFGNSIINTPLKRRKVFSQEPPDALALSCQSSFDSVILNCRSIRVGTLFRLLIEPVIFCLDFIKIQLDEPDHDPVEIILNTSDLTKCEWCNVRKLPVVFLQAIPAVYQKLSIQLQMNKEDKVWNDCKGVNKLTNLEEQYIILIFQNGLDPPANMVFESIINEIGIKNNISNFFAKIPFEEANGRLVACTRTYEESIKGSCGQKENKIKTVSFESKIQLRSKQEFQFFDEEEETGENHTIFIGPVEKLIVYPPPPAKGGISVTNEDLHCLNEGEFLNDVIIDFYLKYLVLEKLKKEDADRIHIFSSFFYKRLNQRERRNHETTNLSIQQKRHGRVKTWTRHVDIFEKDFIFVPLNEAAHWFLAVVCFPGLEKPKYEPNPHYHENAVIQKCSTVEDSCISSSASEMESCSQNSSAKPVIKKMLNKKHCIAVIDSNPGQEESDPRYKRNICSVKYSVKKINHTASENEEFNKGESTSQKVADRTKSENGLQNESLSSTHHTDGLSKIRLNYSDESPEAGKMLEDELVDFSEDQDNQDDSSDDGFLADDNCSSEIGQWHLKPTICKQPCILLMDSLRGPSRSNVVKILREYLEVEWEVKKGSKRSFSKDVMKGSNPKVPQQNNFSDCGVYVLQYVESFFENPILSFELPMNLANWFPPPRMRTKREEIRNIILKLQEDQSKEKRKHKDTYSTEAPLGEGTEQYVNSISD

[6] = target: T4, Sentrin-specific protease 8 (Homo sapiens, UniProt Q96LD8); type: functional;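 further: luminescence read-out of SENP8 inhibition, dose-response confirmation following an ultra-high-throughput screen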
T4 sequence (Q96LD8 whole entry): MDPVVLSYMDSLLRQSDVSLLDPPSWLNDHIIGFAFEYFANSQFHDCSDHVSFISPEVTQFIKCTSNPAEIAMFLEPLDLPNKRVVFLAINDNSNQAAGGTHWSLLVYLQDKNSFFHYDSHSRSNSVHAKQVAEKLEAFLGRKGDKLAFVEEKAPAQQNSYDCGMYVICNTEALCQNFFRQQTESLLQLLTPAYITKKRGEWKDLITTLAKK

[7] = target: T5, Mucolipin-3 (Homo sapiens, UniProt Q8TDD5); experiment: Dose response cell-based high-throughput screening assay for agonists of the transient receptor potential channel ML3 (TRPML3). [Related pubchem assays: 1526, 1424, 1448 ]; type: functional
T5 sequence (Q8TDD5 whole entry): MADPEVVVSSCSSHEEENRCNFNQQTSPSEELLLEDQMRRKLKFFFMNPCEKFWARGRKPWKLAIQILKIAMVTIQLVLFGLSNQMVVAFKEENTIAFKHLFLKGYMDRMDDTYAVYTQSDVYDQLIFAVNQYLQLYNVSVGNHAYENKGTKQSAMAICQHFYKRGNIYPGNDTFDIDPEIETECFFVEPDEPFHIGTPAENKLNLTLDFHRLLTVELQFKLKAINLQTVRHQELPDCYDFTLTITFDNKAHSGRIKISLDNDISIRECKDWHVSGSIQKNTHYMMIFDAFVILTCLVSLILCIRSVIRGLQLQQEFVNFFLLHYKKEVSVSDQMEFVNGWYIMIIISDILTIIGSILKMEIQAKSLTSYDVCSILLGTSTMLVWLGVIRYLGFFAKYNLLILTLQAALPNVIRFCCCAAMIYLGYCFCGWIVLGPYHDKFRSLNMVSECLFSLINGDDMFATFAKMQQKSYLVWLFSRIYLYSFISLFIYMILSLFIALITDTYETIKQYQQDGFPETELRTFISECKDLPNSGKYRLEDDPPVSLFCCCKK

[8] = target: Ion channel NompC (Danio rerio, UniProt Q7T1G6); experiment: Fluorescence counterscreen assay for TRPML3 agonists: dose response cell-based high-throughput screening assay to identify agonists of the transient receptor potential channel N1 (TRPN1). [Related pubchem assays: 1526, 1424, 1448 ]; type: functional
[9] = luciferase reporter signal suppression in cells – H4 neuroglioma cells, luminescence, dose response (AID 1990); type: functional, cell-based
[10] = luciferase reporter signal reduction – luminescence, H4-C neuroglioblastoma cells, dose response (AID 2458); type: functional, cell-based;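 further: H4 neuroglioblastoma cells stably carrying a luciferase reporter gene fusion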
[11] = tested on: BJ; experiment: BJ-TERT fibroblast viability loss – cell-based, RAS-independent, luminescence, dose response (AID 1933); type: functional; settings: Homo sapiens
[12] = cells; type: functional, cell-based
[13] = Luminescence Cell-Based Dose Response HTS to Identify Inhibitors of 5'UTR Stem-Loop Driven Prion Protein mRNA Translation in H4 Neuroglioblastoma Cells. [Related pubchem assays: 1827 (Project Summary), 1813 (Primary HTS)]; type: functional
[14] = alpha-synuclein stem-loop luciferase translation blockers – H4 neuroglioma cells, luminescence, confirmation (AID 1988); type: functional, cell-based
[15] = tested on: BJ; experiment: cells; type: functional, cell-based; settings: Homo sapiens
[16] = tested on: BJ; experiment: BJ-TERT-LT-ST fibroblast viability loss – cell-based, RAS-independent, luminescence, dose response (AID 1935); type: functional; settings: Homo sapiens;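 further: BJ fibroblasts immortalized with TERT plus LT and ST oncogenes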
[17] = DRD fibroblast viability loss – cell-based, non-viral oncogenic, luminescence, dose response (AID 1934); type: functional; settings: Homo sapiens
[18] = alpha-synuclein stem-loop translation blockers – luminescence, H4 neuroglioblastoma cells, dose confirmation, confirmation (AID 2454); type: functional, cell-based;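 further: H4 neuroglioblastoma cells carrying an alpha-synuclein 5'UTR luciferase reporter; potency for inhibition of the luciferase signal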
[19] = HEK-293T viability loss after treatment – luminescence, T-cell screen hits, cytotoxicity control for TCR NF-kB inhibitor project, dose response (AID 489026); type: functional, cell-based;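 further: cells exposed to compound about 14 hours before the viability readout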
[20] = target: Glyceraldehyde-3-phosphate dehydrogenase (Homo sapiens, UniProt P04406)
[21] = target: T6, Mannose-6-phosphate isomerase (Homo sapiens, UniProt P34949); experiment: MPI enzyme activity inhibition – biochemical, fluorescence intensity, coupled assay, primary screen (AID 1209)
T6 sequence (P34949 whole entry): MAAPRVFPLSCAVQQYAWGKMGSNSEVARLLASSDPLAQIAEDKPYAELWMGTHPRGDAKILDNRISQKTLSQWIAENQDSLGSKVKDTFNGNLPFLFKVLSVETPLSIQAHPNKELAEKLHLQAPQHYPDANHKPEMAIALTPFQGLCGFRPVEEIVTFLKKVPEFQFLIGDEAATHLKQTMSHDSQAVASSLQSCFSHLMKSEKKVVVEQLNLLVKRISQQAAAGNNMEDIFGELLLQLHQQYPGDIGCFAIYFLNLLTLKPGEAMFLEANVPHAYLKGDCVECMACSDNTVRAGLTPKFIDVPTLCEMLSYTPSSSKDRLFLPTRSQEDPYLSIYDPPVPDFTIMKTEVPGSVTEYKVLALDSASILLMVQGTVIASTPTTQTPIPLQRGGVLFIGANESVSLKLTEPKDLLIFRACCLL

[22] = target: Peroxisome proliferator-activated receptor gamma/Nuclear receptor coactivator 2 (Homo sapiens, UniProt P37231); type: functional;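 further: agonist potency for raising coactivator recruitment to the receptor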
[23] = target: Peroxisome proliferator-activated receptor gamma/Nuclear receptor coactivator 1 (Homo sapiens, UniProt P37231); type: functional;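 further: agonist potency as compounds enhance coactivator SRC-1 recruitment to PPARgamma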
[24] = target: Peroxisome proliferator-activated receptor gamma/Nuclear receptor coactivator 3 (Homo sapiens, UniProt P37231); type: functional;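 further: agonist potency for raising coactivator recruitment to the receptor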
Sequence of Peroxisome proliferator-activated receptor gamma/Nuclear receptor coactivator 3 (P37231 whole entry): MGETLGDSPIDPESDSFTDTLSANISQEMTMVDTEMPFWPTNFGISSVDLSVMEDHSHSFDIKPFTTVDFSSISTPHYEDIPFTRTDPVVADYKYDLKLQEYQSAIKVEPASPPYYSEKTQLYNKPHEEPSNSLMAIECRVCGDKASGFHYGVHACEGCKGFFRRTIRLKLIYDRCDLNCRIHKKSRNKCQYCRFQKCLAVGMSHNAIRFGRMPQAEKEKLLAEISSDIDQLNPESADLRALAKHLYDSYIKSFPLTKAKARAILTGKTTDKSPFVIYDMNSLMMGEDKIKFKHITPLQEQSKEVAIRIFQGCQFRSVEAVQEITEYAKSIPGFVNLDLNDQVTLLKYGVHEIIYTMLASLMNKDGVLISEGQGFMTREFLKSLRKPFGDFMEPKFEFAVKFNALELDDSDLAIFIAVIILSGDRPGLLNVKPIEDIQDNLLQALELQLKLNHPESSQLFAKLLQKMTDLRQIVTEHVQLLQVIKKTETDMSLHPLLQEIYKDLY
Sequence of Peroxisome proliferator-activated receptor gamma/Nuclear receptor coactivator 3 (Q9Y6Q9 whole entry, further chain): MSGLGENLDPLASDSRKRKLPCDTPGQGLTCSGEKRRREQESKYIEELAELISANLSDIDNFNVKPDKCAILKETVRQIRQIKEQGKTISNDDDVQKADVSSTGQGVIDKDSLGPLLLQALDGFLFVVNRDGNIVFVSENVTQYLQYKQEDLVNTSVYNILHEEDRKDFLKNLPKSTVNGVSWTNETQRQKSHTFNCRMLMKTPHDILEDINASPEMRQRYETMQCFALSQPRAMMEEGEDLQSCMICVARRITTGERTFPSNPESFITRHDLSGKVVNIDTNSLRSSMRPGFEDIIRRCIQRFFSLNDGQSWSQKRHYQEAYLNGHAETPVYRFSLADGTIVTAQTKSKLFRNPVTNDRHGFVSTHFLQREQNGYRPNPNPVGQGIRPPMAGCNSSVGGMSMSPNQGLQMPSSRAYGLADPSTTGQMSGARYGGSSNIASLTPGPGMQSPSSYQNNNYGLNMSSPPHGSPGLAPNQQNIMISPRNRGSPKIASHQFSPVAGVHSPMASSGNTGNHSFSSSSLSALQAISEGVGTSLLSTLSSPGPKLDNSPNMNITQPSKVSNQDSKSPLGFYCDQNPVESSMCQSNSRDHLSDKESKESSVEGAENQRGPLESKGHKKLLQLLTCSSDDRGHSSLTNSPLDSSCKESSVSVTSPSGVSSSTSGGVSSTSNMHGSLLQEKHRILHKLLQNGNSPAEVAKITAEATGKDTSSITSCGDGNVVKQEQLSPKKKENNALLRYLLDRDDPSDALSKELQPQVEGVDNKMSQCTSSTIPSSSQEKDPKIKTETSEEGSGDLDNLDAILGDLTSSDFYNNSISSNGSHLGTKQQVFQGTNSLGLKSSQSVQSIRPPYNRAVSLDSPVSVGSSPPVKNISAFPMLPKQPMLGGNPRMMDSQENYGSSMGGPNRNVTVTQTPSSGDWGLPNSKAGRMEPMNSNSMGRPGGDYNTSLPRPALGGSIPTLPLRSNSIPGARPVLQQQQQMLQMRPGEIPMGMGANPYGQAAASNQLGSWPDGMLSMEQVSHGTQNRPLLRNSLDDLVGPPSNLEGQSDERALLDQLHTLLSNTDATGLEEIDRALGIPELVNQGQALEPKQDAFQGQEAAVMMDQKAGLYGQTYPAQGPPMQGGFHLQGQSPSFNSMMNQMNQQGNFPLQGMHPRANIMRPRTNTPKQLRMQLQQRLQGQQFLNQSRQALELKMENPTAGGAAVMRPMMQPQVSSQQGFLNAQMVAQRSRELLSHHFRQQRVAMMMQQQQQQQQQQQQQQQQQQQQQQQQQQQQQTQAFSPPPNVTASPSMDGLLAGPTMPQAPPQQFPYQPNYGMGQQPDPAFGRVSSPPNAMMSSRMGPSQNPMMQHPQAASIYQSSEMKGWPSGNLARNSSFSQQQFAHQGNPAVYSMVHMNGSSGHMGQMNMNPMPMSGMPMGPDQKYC

Sequence of Peroxisome proliferator-activated receptor gamma/Nuclear receptor coactivator 1 (P37231 whole entry): as the sequence (P37231 whole entry) above
Sequence of Peroxisome proliferator-activated receptor gamma/Nuclear receptor coactivator 1 (Q15788 whole entry, further chain): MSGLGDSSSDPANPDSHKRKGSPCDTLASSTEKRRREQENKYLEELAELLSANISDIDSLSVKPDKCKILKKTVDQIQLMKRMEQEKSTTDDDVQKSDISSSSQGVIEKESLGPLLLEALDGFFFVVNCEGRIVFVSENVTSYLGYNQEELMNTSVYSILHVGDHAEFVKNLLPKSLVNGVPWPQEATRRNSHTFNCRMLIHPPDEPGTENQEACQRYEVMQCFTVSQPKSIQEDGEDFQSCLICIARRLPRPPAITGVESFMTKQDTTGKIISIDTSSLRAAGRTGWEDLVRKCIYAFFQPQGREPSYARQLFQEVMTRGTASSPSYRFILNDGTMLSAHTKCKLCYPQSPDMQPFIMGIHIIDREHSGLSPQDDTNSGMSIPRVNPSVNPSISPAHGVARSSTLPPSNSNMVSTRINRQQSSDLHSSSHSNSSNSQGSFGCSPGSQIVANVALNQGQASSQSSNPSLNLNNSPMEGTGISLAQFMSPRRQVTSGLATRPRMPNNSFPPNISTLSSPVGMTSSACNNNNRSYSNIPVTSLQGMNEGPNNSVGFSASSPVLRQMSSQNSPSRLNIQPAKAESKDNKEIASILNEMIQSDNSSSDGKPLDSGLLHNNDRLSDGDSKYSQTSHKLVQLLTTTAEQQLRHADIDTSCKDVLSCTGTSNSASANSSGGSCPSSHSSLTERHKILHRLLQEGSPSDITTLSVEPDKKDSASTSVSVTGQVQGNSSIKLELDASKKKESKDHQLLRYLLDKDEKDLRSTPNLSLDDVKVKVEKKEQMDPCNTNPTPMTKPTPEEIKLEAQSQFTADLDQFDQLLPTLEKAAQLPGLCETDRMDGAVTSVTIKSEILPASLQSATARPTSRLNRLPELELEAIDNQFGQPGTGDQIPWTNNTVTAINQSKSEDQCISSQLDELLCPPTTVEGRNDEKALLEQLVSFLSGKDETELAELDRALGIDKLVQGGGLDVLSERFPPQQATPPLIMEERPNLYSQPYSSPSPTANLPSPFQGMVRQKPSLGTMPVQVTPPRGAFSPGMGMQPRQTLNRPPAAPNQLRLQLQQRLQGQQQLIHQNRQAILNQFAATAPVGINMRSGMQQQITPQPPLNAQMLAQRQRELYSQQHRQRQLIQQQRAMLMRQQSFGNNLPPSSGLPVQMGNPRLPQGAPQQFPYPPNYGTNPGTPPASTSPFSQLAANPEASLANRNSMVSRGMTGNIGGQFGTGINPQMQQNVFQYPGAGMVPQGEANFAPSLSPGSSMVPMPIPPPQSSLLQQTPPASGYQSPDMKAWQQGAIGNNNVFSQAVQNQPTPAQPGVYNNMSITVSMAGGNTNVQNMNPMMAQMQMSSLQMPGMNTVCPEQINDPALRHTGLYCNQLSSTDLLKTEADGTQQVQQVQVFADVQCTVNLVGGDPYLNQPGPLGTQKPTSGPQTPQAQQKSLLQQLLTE
Sequence of Glyceraldehyde-3-phosphate dehydrogenase (P04406 whole entry): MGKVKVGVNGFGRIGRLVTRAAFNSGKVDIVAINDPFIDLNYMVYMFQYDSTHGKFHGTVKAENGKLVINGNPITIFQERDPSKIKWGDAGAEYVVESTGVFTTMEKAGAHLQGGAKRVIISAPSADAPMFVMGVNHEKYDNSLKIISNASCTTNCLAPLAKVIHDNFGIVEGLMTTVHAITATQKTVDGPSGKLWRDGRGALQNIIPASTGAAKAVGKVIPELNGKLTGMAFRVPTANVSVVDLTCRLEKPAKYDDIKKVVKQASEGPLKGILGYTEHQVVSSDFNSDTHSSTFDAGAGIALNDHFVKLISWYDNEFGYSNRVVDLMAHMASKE

O=c1[nH]c(/C=C/c2cccc(Br)c2)nc2ccccc12
CC50 [1]: 33.4 µM (active)

Cc1cccc(C(=O)Nc2sc(C)c(-c3ccccc3)c2C#N)c1
IC50 [2]: > 50 µM (not active)
IC50 [3]: 38.5 µM (active)
IC50 [4]: 7.15 µM (active)
IC50 [5]: > 100 µM (inactive)
IC50 [6]: > 100 µM (inactive)

CCC(Oc1cc(Cl)ccc1Cl)C(=O)NN1C(=O)C2C3CCC(C3=C(C)C)C2C1=O (stereo not drawn)
EC50 [7]: 3.99 µM (active)
EC50 [8]: 23.7 µM (not active)

C=CCOC(=O)c1[nH]c2c(c1C)C(=O)CC(c1ccco1)C2 (stereo not drawn)
EC50 [9]: 0.257 µM (active)
EC50 [10]: 0.598 µM (active)
EC50 [11]: 0.377 µM (inconclusive)
EC50 [12]: 1.29 µM (active)
EC50 [13]: 0.19 µM (active)
EC50 [14]: < 0.1 µM (active)
EC50 [15]: 29.1 µM (inconclusive)
EC50 [16]: 0.346 µM (inconclusive)
EC50 [17]: 0.374 µM (active)
EC50 [18]: 0.822 µM (active)
IC50 [19]: > 80 µM (inactive)

CCN(C1CCCCC1)S(=O)(=O)c1cc(C)ccc1OC
EC50 [7]: 3.39 µM (active)
EC50 [8]: > 29.9 µM (not active)

CCCC(=O)Oc1c(S(=O)(=O)c2ccc(C)cc2)c(C)nn1C(C)(C)C
EC50 [7]: 2.31 µM (active)
EC50 [8]: > 29.9 µM (not active)

CN(C)S(=O)(=O)N1CCN(c2cc(Cl)ccc2Cl)CC1
EC50 [7]: 26.5 µM (not active)
EC50 [8]: > 29.9 µM (not active)

Cc1cccc(N2C(=O)C(Cl)=C(N3CCN(Cc4ccccc4)CC3)C2=O)c1
IC50 [20]: > 50 µM (inconclusive)

Cc1ccc(N2C(=O)CC(Sc3nc[nH]n3)C2=O)cc1C (stereo not drawn)
IC50 [21]: > 50 µM (not active)

O=C1COc2ccc(C(=O)/C=C/c3ccccc3)cc2N1
CC50 [1]: 21.5 µM (active)

CCC(C)Nc1nc(N)c([N+](=O)[O-])c(NC2CCCCC2)n1 (stereo not drawn)
EC50 [9]: 13.2 µM (active)
EC50 [10]: > 12 µM (not active)
EC50 [12]: > 12 µM (not active)
EC50 [13]: < 0.1 µM (active)
EC50 [14]: 9.77 µM (active)
EC50 [18]: > 12 µM (not active)

N#Cc1ccccc1/C=N/Nc1nc(-c2ccccc2)c2cc(Br)ccc2n1
CC50 [1]: > 40 µM (active)

CSc1ccccc1NC(=O)Cn1c(-c2cscn2)nc2ccccc21
EC50 [22]: > 79.4 µM (not active)
EC50 [23]: > 79.4 µM (not active)
EC50 [24]: > 79.4 µM (not active)

N#Cc1ccc(/C=N/NC(=N)N)cc1
EC50 [22]: > 79.4 µM (not active)
EC50 [23]: > 79.4 µM (not active)
EC50 [24]: > 79.4 µM (not active)

COc1ccc(C(=O)/N=c2\sc3ccccc3n2C)cc1OC
EC50 [22]: > 79.4 µM (not active)
EC50 [23]: > 79.4 µM (not active)
EC50 [24]: > 79.4 µM (not active)

COc1cccc(/C=N/NC(=O)c2csc(-n3nc(C)cc3C(F)(F)F)n2)c1
EC50 [22]: > 79.4 µM (not active)
EC50 [23]: > 79.4 µM (not active)
EC50 [24]: > 79.4 µM (not active)

O=C(c1cc(-c2cc(F)c(Cl)cc2Cl)n[nH]1)N(CCO)CCO
IC50 [20]: > 10 µM (inconclusive)
